Test [1] has as its system Akt phosphorylated at Ser473 in PC-3 cells. Nature of the test: Cellular assay: phosphorylation of Akt at Ser473 in PC-3 cells (MSD ELISA). The class given is cell-based. The settings on record: PC-3 cells, 60 min compound incubation, MSD ELISA, read-out: IC50 pAkt_S473. A digest of the protocol:
(§1)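 After lysis of treated cells (60 min, 37° C, 0.3% DMSO), phospho-Akt levels were measured by MSD electrochemiluminescence ELISA. Potency was derived from concentration-response curves fitted over five concentrations.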

The target in test [2] is T1, PI3Kδ (Homo sapiens, UniProt O00329).
T1 construct: purchased DiscoveRx Corporation, San Diego (contract service, KINOMEscan)
T1 sequence (O00329 1-1044): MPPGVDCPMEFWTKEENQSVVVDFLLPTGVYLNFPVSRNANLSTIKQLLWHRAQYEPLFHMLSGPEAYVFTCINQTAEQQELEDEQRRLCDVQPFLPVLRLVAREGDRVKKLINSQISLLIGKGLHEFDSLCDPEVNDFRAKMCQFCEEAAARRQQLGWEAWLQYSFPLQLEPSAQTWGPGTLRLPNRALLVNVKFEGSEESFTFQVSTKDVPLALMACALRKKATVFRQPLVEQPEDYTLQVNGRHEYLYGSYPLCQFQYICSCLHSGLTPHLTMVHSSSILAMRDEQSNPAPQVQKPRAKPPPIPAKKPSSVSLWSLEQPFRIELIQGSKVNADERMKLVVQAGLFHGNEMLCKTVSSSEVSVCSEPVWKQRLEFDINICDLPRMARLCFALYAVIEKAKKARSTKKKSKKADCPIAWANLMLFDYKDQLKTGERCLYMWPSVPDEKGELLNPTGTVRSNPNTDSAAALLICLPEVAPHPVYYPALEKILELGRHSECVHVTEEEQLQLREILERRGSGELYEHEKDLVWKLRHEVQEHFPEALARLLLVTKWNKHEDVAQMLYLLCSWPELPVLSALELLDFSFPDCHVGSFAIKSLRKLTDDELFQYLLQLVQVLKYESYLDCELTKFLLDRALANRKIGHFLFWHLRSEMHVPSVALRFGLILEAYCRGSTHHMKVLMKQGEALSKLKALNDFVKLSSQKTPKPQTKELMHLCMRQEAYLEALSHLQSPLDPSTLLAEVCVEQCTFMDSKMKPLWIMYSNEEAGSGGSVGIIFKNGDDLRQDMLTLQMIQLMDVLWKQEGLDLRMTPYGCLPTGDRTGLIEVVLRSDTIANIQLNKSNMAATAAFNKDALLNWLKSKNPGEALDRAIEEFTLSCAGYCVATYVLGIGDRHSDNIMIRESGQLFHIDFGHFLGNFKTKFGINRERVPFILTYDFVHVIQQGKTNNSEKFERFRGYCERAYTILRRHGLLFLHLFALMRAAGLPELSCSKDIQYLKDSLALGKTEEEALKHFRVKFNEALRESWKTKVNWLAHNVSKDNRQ
Nature of the test: Enzyme binding assay (KINOMEscan, DiscoveRx). The settings on record: PIK3Cδ_h. A digest of the protocol:
(§2)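 Kinase binding measured via KINOMEscan, reported as affinity.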

The test system of test [3] is Akt phosphorylated at Thr308 in PC-3 cells. Kind of test: Cellular assay: phosphorylation of Akt at Thr308 in PC-3 cells (MSD ELISA). The class given is cell-based. The settings on record: PC-3 cells, 60 min compound incubation, MSD ELISA, read-out: IC50 pAkt_Thr308. A digest of the protocol: as §1
(An ELISA detects its analyte on a solid surface through an enzyme-linked reagent.)

Test [4] addresses T2, PI3Kβ (Homo sapiens, UniProt P42338).
T2 construct: purchased DiscoveRx Corporation, San Diego (contract service, KINOMEscan)
Kind of test: Enzyme binding assay (KINOMEscan, DiscoveRx). The following applies: PIK3Cβ_h, read-out: Kd PIK3Cβ_h. In short, it runs like this:
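Reported Kd (nM) reflects inhibitor binding to the kinase, as measured by KINOMEscan technology.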

Test [5] concerns the target T3, kinase enzymes (Homo sapiens, UniProt P42345).
T3 construct: purchased DiscoveRx Corporation, San Diego (contract service, KINOMEscan)
Nature of the test: Enzyme binding assay (KINOMEscan, DiscoveRx), further kinases of Table A. The settings on record: MTOR_h. A digest of the protocol:
as §2

Test [6] deals with T4, kinase enzymes (Homo sapiens, UniProt P48736).
T4 construct: purchased DiscoveRx Corporation, San Diego (contract service, KINOMEscan)
Described as above. The following applies: PIK3Cγ_h. In short, it runs like this:
as §2

Test [7] deals with T5, kinase enzymes (Homo sapiens, UniProt P42336).
T5 construct: purchased DiscoveRx Corporation, San Diego (contract service, KINOMEscan)
The test is described as above. The settings on record: PIK3Cα_h. In short, it runs like this:
as §2

pIC50, pKd: −log10 of the molar value. Read-outs that look alike come from different tables or passages of the source. A value given as a limit tells only on which side of the number the result lay.

T2 sequence (P42338 whole entry): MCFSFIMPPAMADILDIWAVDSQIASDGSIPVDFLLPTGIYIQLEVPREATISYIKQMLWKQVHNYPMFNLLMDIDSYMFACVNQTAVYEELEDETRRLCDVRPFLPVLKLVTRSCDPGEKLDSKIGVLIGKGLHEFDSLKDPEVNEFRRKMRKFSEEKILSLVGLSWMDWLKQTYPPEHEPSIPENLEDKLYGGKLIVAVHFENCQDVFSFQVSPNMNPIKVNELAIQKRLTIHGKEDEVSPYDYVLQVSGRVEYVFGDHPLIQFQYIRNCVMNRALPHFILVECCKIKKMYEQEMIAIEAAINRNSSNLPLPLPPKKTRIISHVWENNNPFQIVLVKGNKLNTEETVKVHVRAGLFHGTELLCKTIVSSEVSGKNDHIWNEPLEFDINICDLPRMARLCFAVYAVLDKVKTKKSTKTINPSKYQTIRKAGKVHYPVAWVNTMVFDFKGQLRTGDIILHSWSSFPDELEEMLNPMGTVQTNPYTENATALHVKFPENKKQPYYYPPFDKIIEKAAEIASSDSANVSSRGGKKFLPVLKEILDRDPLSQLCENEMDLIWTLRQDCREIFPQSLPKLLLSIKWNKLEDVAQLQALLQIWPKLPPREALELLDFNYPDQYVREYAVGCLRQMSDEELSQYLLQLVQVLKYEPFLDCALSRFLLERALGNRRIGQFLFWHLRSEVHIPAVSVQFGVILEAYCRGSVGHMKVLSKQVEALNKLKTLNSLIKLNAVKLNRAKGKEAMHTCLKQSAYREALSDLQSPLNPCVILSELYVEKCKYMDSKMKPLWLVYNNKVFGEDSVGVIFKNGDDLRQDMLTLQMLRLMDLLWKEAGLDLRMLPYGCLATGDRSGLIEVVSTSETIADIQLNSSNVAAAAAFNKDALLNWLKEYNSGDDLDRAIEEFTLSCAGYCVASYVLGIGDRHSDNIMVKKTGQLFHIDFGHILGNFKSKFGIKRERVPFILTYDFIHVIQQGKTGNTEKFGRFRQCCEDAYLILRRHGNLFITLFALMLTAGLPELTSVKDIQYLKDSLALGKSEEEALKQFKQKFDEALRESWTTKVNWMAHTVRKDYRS
T5 sequence (P42336 whole entry): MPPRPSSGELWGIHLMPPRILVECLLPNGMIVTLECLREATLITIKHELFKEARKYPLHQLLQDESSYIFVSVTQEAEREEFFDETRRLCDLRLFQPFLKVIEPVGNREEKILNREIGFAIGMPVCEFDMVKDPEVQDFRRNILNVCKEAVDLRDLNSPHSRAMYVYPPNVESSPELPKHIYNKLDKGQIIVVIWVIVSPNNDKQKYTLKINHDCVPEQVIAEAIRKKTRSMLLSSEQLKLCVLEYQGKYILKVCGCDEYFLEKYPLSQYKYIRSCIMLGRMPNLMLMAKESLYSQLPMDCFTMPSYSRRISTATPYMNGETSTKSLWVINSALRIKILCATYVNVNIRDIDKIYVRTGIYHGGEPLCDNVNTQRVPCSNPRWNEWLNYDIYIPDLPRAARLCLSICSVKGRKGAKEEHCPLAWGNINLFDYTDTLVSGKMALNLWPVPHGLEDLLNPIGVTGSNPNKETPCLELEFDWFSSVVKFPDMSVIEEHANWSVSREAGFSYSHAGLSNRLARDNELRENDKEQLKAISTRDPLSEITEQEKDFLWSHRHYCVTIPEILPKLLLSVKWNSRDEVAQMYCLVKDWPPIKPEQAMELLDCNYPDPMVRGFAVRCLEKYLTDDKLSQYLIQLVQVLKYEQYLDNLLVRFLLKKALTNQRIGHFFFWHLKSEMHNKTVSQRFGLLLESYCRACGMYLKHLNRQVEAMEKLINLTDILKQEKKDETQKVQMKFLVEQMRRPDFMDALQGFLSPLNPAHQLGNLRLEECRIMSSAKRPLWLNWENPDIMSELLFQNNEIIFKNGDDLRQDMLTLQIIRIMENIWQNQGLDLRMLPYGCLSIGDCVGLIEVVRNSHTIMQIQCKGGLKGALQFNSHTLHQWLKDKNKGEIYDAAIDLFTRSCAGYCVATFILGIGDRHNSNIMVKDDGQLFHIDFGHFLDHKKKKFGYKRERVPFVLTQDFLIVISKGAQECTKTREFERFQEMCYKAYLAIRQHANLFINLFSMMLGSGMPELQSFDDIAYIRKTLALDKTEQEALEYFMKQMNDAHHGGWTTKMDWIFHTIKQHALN
T4 sequence (P48736 whole entry): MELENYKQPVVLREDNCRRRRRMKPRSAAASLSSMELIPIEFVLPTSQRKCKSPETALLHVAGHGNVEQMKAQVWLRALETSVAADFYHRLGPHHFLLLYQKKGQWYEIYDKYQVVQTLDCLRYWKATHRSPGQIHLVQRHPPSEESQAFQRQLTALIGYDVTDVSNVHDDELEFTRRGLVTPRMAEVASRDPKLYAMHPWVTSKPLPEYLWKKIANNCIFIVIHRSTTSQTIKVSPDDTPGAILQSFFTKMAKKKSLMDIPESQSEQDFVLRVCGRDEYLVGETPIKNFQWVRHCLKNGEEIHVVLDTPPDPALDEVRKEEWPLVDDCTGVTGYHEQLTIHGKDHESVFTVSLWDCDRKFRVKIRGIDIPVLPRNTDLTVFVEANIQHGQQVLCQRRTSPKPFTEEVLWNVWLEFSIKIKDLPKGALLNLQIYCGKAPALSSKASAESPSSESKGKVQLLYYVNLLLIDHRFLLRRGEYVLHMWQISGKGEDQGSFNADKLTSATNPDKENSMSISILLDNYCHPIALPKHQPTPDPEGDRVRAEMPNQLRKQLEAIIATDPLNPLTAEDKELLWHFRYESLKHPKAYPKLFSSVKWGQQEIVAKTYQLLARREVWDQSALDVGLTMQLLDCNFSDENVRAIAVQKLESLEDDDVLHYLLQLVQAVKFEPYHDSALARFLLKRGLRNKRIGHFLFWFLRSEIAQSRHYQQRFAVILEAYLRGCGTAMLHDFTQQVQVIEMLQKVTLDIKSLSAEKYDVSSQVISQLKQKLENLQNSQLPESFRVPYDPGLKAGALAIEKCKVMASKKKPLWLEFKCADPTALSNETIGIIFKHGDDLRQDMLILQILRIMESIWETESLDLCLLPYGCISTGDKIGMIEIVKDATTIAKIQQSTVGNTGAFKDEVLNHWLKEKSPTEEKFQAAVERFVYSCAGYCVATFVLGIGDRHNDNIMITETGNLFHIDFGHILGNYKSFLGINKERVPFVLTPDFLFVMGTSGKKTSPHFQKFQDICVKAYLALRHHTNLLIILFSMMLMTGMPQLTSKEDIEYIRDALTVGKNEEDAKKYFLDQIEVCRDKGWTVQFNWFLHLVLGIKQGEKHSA

Consider `CC(Nc1cc(F)c(F)c(F)c1)c1cc(C(=O)NCCO)cc2ncc(N3CCOCC3)nc12` (single isomer, unassigned) [Compound 214], for which the pIC50 in test [1] and in test [3] was < 6.29 in each case. Further, the negative-log Kd (pKd) (usually the negative decadic logarithm of the Kd, by convention in mol/L) in test [2] is < 4.52; in test [4], 5.91; in test [5] it was < 4.52; in test [6], 5.34; in test [7] it was < 4.52.
Regarding `CC(Nc1cc(F)cc(F)c1)c1cc(C(=O)NS(=O)(=O)C2CC2)cc2ncc(N3CCOCC3)nc12` (single isomer, unassigned) [Compound 219], the pIC50 (as a rule, the negative decadic logarithm of the IC50, by convention in mol/L) in test [1] (Homo sapiens, PC-3, 1 h) is < 6.29; in test [3] (Homo sapiens, PC-3, 1 h) it was < 6.29. The pKd in test [2] is 6.56; in test [4], 9.00; in test [5], 5.48; in test [6], 6.02; in test [7] it was 7.03.
Consider `CC(Nc1cc(F)cc(F)c1)c1cc(C(=O)NS(=O)(=O)C2CC2)cc2ncc(N3CCOCC3)nc12` (single isomer, unassigned) [Compound 220], for which the pIC50 in test [1] and in test [3] was < 6.29 throughout. The pKd was < 4.52 in test [2]; 5.56 in test [4]; 5.19 in test [5]; 4.59 in test [6]; 4.59 in test [7].
Take `CC(C)NCCNC(=O)c1cc(C(C)Nc2cccc(F)c2)c2nc(N3CCOCC3)cnc2c1` (single isomer, unassigned) [Compound 228]: the pIC50 in test [1] is < 6.29; in test [3], 6.46. The pKd in test [2] was 4.81; in test [4] it was 6.22; in test [5] it was < 4.52; in test [6] it was 5.39; in test [7], 5.21.
As to `CC(Nc1cc(F)cc(F)c1)c1cc(C(=O)N2CCNC(C(F)(F)F)C2)cc2ncc(N3CCOCC3)nc12` (single isomer, unassigned) [Compound 237b], the pIC50 in test [1] and in test [3] was < 6.29 in each case. Moreover, the pKd in test [2] was 5.11; in test [4] it was 7.13; in test [5] it was < 4.52; in test [6], < 4.52; in test [7], 5.06.
Turning to `CC(Nc1cc(F)cc(F)c1)c1cc(C(=O)N2CCNC(C(F)(F)F)C2)cc2ncc(N3CCOCC3)nc12` (single isomer, unassigned) [Compound 237c], the pIC50 in test [1] was 7.59; in test [3] it was 7.96. Moreover, the pKd in test [2] is 6.63; in test [4], 8.40; in test [5] it was < 4.52; in test [6], 5.26; in test [7], 6.43.
Regarding `CC(Nc1cc(F)cc(F)c1)c1cc(C(=O)N2CCNC(C(F)(F)F)C2)cc2ncc(N3CCOCC3)nc12` (single isomer, unassigned) [Compound 237d], the pIC50 in test [1] and in test [3] was < 6.29 throughout. The pKd was 4.71 in test [2]; 6.62 in test [4]; < 4.52 in test [5]; < 4.52 in test [6]; 4.90 in test [7].
As to `O=C(NCCO)c1cc(N2CCCC2c2cc(F)cc(F)c2)c2nc(N3CCOCC3)cnc2c1` (single isomer, unassigned) [Compound 244], the pIC50 in test [1] (Homo sapiens, PC-3, 1 h) is < 6.29; in test [3] (Homo sapiens, PC-3, 1 h), < 6.29. For the same compound, the pKd in test [2] was 5.38; in test [4], 6.13; in test [5], 4.70; in test [6] it was 4.90; in test [7] it was 5.08.
Consider `O=C(NCCO)c1cc(N2CCCC2c2cc(F)cc(F)c2)c2nc(N3CCOCC3)cnc2c1` (single isomer, unassigned) [Compound 245], for which the pIC50 in test [1] and in test [3] was < 6.29 throughout. The pKd in test [2] was 5.98; in test [4] it was 7.14; in test [5] it was 4.66; in test [6], 4.88; in test [7], 5.06.
As to `CC(Nc1cc(F)cc(F)c1)c1cc(C(=O)NC[C@H](C)O)cc2ncc(N3CCOCC3)nc12` (single isomer, unassigned) [Compound 246a], the pIC50 in test [1] (Homo sapiens, PC-3, 1 h) was 7.36; in test [3] (Homo sapiens, PC-3, 1 h) it was 7.62. Also, the pKd was 5.41 in test [2]; 8.40 in test [4]; 4.57 in test [5]; 5.17 in test [6]; 6.09 in test [7].
On to `COC(=O)c1cc(C2CCCN2c2cc(F)cc(F)c2)c2nc(N3CCOCC3)cnc2c1` (single isomer, unassigned) [Compound 252], for which the pIC50 in test [1] and in test [3] was < 6.29 each time. Further, the pKd in test [2], in test [4], in test [5], in test [6] and in test [7] was < 4.52 each time.
Consider `CC(Oc1cccc(F)c1)c1cc(C(=O)O)cc2ncc(N3CCOCC3)nc12` (single isomer, unassigned) [Compound 257b], for which the pIC50 was < 6.29 in test [1] (Homo sapiens, PC-3, 1 h) and < 6.29 in test [3] (Homo sapiens, PC-3, 1 h). In addition, the pKd is 6.33 in test [2]; 7.66 in test [4]; 5.55 in test [5]; 5.51 in test [6]; 6.07 in test [7].
For the compound `CC(Oc1cccc(F)c1)c1cc(C(=O)O)cc2ncc(N3CCOCC3)nc12` (single isomer, unassigned) [Compound 257c], the pIC50 in test [1] and in test [3] was < 6.29 throughout. The pKd in test [2] was 5.52; in test [4] it was 6.22; in test [5], 5.78; in test [6], 5.50; in test [7], 5.77.
With `CC(Nc1ccc(F)c(F)c1)c1cc(C(=O)NCCCO)cc2ncc(N3CCOCC3)nc12` (single isomer, unassigned) [Compound 280b], the pIC50 in test [1] and in test [3] was < 6.29 each time. Also, the pKd in test [2] is 4.67; in test [4] it was 6.09; in test [5], < 4.52; in test [6], 4.61; in test [7], 4.65.
With `CC(Nc1ccc(F)c(F)c1)c1cc(C(=O)NCCN(C)C)cc2ncc(N3CCOCC3)nc12` (single isomer, unassigned) [Compound 281b], the pIC50 in test [1] and in test [3] was < 6.29 in each case. Besides, the pKd in test [2] is 5.46; in test [4], 6.82; in test [5] it was < 4.52; in test [6] it was 5.13; in test [7] it was 5.21.
With `CC(C)NCCNC(=O)c1cc(C(C)Oc2ccc(F)c(F)c2)c2nc(N3CCOCC3)cnc2c1` (single isomer, unassigned) [Compound 286a], the pIC50 in test [1] and in test [3] was < 6.29 throughout. Also, the pKd in test [2] is 5.24; in test [4] it was 6.74; in test [5] it was 4.59; in test [6], < 4.52; in test [7], 4.99.
As to `CC(Nc1ccc(F)c(F)c1)c1cc(C(=O)N2CCN3CCC[C@H]3C2)cc2ncc(N3CCOCC3)nc12` (single isomer, unassigned) [Compound 287a], the values for the pIC50 in test [1] and in test [3] were 7.51 and 7.47, respectively. Also, the pKd in test [2] was 6.63; in test [4] it was 8.52; in test [5], < 4.52; in test [6] it was 4.68; in test [7], 5.76.

Source of the values: patent US10526316B2, “Quinoxaline and pyridopyrazine derivatives as PI3Kβ inhibitors” (Janssen Pharmaceutica NV, priority 2015, dated 2020).
